Laboratory results published in PubChem BioAssay AID449762 (Southern Research Specialized Biocontainment Screening …, 2010).
Records with an inconclusive call do not appear.

Tested on: M. tuberculosis H37Rv growth inhibition, 7H9 media
Test: M. tuberculosis growth inhibition, HTS (AID 449762);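 note: bacterial growth assessed after seven days of incubation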
Details: for IC90: measured here: IC90 growth inhibition

Row | Compound | IC50 [µM] | IC90 [µM]
1 | COc1cc(OC)cc(-c2cc3nc(C)c(CCC(=O)NC(C)CCc4ccco4)c(C)n3n2)c1 (stereo not drawn) | 44.3 | > 100
2 | Cc1ccc(C)c(N2CCN(C(=O)c3ccc4nc(N5CCOCC5)sc4c3)CC2)c1 | 37.6 | 47.4
3 | Cc1cc(NC(=O)CCl)no1 | 1.31 | 3.6
4 | C=C(C)CSc1cc(C)c(C#N)c2nc3ccccc3n12 | 34.3 | 48.1
5 | CCN(CC(=O)NCc1cccs1)C(=O)c1ccc([N+](=O)[O-])o1 | 19 | 58.3
6 | c1ccc(CN2CCC3(CCCc4ccccc43)CC2)cc1 | 10.3 | 13.6
7 | O=C(Nc1cc(C(F)(F)F)ccc1-n1cncn1)c1ccc([N+](=O)[O-])o1 | 9.55 | 32.5
8 | Cc1cc(C)nc(-n2nc(C)cc2NC(=O)CN2CCC(C)CC2)n1 | 6.86 | 16.9
9 | CCOC(=O)Cn1c(-c2ccccc2)ccc(C#N)c1=O | 4.51 | > 100
10 | COc1ccc(C2=NC(=O)/C(=C\c3cc(OC)c(OC)c(OC)c3)O2)cc1 | 5.71 | 49.3
11 | CC1CCN(C(=O)c2ccc(-c3ccccc3Cl)o2)CC1 | 17.9 | 65.8
12 | CC1=NN(c2ccccc2)C(=O)C1C(=O)c1ccccc1 (stereo not drawn) | 25.7 | 53
13 | Cc1ccc(-c2csc3ncnc(Nc4ccc(N5CCOCC5)cc4)c23)cc1 | 18.4 | 50.1
14 | CCCCN1C(=O)C2(NNc3ccccc3O2)c2ccccc21 (stereo not drawn) | 57.5 | > 100
15 | Clc1ccc(CCC(Cn2ccnc2)Sc2c(Cl)cccc2Cl)cc1 (stereo not drawn) | 7.79 | 14.3
16 | Cc1ccc(N/C=C2\C(=O)C3(C)CCC2C3(C)C)cc1C (stereo not drawn) |  | > 100
17 | CCCC1CC(C)(c2csc(Nc3ccc(OCC)cc3)n2)OC1=O (stereo not drawn) | 33.5 | 46.5
18 | N#CC(C#N)=c1ccc2c(c1)N1C3=C(CCCC3)CC3CCCCC31N=2 (stereo not drawn) | 11.5 | 13.1
19 | Oc1c(C(c2ccccc2Cl)N2CCCC2)ccc2cccnc12 (stereo not drawn) | 14.1 | 31.1
20 | Oc1ccc2ccccc2c1C1Nc2cccc3cccc(c23)N1 | 75 | > 100
21 | CC(=O)n1cc(/C=C2/N=C(c3ccccc3)OC2=O)c2ccccc21 | 30.7 | 75.5
22 | COc1ccc(CN2CCCC(C(=O)c3ccc(SC)cc3)C2)cc1Cn1cccn1 (stereo not drawn) | 23.9 | 26.6
23 | CCC1CSC(Nc2ccc(C(=O)/C=C/c3cccc(C)c3)cc2)=N1 (stereo not drawn) | 18.9 | 27.3

Row | Compound | IC50 [µM] | IC90 [µM]
24 | O=C(CCN1C(=O)/C(=C/c2ccccc2Cl)SC1=S)N1CCCC1 | 9.76 | > 25
25 | CCc1ccc(NC(=S)/N=C(\N)Nc2nc(C)c3cc(CC)ccc3n2)cc1 | 7.31 | 40
26 | CC(NC(=O)c1ccccc1Br)C1CC2CCC1C2 (stereo not drawn) | 21 | > 100
27 | O=C(Nc1nnc(C2=COCCO2)o1)c1ccc(Cc2ccccc2)cc1 | 3.26 | 9.81
28 | Cc1ccccc1Cn1ccc(=NCc2ccccc2)cc1 | 4.39 | 12
29 | Cc1ccc(N/N=C/C=C/c2ccco2)cc1 | 61.2 | 98.2
30 | Nc1nnnn1/N=C/C(Br)=C/c1ccccc1 | 1.08 | 8.66
31 | Cc1ccnc(N2CCC(C(=O)Nc3cccc(C(F)(F)F)c3)CC2)n1 | 47.5 | > 100
32 | c1ccc(-c2c3ccccc3nc3[nH]c4ccccc4c23)cc1 | 63.1 | > 100
33 | CN(C)c1ccc(O)c2c1CC1CC3[C@@H](N(C)C)C(=O)C(C(N)=O)C(=O)[C@]3(O)C(=O)C1C2=O (stereo partly drawn) | 1.27 | 3.62
34 | N#CC1=C(c2ccccc2)/C(=C/c2ccccc2)OC1=O | 10.2 | 20.1
35 | CN(CCCNC(=O)c1cc2c(Cl)nc3ccccc3c2s1)Cc1ccccc1 | 41.1 | 61
36 | Cn1c(=O)c(C(=O)NNC(=O)c2cccc(Cl)c2)c(O)c2ccccc21 | 0.8 | 1.28
37 | Cc1cc(C)cc(NC(=O)CCc2ccc(C)o2)c1 | 43 | > 100
38 | CC(=O)N1CCN(c2ccc(OC[C@H]3CO[C@](Cn4ccnc4)(c4ccc(Cl)cc4Cl)O3)cc2)CC1 | 17.5 | 25.2
39 | COc1ccc(-c2nc(CN3CCN(c4cc(C)nc(C)c4)CC3)c(C)o2)c2ccccc12 | 19.6 | 25.2
40 | CCOC(=O)c1[nH]c2ccc(F)cc2c1NC(=O)CN1CCN(C/C=C/c2ccccc2)CC1 | 19.1 | 27.1
41 | COc1ccc(CN(CCC(c2ccccc2)c2ccc(OC(C)C)cc2)C(=O)CCl)cc1OC (stereo not drawn) | 6.53 | 12.5
42 | On1onc2c3cc(-c4ccccc4)nc3ccc21 | < 0.2 | < 0.2
43 | COc1ccc(C(=O)COC(=O)[C@H](C)Nc2ccc(C(F)(F)F)cc2[N+](=O)[O-])cc1 | 11.2 | > 25
44 | O=C1NCC(O)=C1C=Nc1ccccc1O | 5.93 | 6.49
45 | CC/C(=C(\c1ccc(O)cc1)c1ccc(OCCN(C)C)cc1)c1ccccc1 | 22.5 | 35.4
46 | CCOC(=O)C(/C=C(\C#N)C(=O)OCC)=C(/N)N1CCN(c2ccc(Cl)cc2)CC1 | 18.5 | > 100

Row | Compound | IC50 [µM] | IC90 [µM]
47 | Cc1[nH]c2ccccc2c1/C=N/Nc1nc(Nc2ccccc2)nc(N2CCOCC2)n1 | 2.88 | 10
48 | O=C(CN1CCN(C(=O)COc2cccc(F)c2)CC1)Nc1ccc(Cl)c(C(F)(F)F)c1 | 49 | 55.4
49 | CCCCNc1c(-c2ccc(SC3CCCCC3)c(OC)c2)nc2ccc(C)cn12 | 11.4 | 12.8
50 | C/C(=C1/C(=O)N(c2ccc([N+](=O)[O-])cc2)N=C1c1ccccc1)N(C)C | 21.8 | 31.4
51 | CN1C(C(=O)NCc2ccc(OC(F)(F)F)cc2)CC2Cn3c(nc4cc(Cl)c(Cl)cc43)C21 (stereo not drawn) | 39.8 | 55.6
52 | O=c1c2ccc(Cl)cc2nc(-c2ccc([N+](=O)[O-])cc2)n1O | 82.6 | > 100
53 | CCOc1ccc(Nc2cc(C)nc(-n3nc(C)cc3C)n2)cc1 | 0.7 | 4.77
54 | S=c1nc[nH]c2nc[nH]c12 | 3.08 | 3.43
55 | Cc1nc(NC(=O)CC(C)C)sc1-c1csc(Nc2ccc(Cl)cc2Cl)n1 | 46.3 | 52.5
56 | COc1ccc(-c2oc3cccnc3c2/C=C/c2ccc(OC)c(OC)c2)cc1 | 51.3 | > 100
57 | CCOc1ccc(/C=C/C2=Cc3c(sc(NC(=O)CSc4n[nH]c(N)n4)c3C#N)C(C)(C)C2)cc1 |  | > 100
58 | COC(=O)c1[nH]c2cc(OC)ccc2c1NC(=O)CN1CCN(c2cccc(C)c2)C(C)C1 (stereo not drawn) | 26.6 | 40.2
59 | COCc1cc(=O)[nH]c(Nc2nc3ccccc3o2)n1 | 1.6 | 7.06
60 | C/C(=N\N=C(/N)SC1CC(=O)N(c2ccc(Cl)cc2)C1=O)c1cccs1 (stereo not drawn) | 33 | > 100
61 | CCCCOC(=O)CCN1C(=O)/C(=C2\SC(=S)N(CCC(=O)OCCCC)C2=O)SC1=S | 2.98 | 6.96
62 | Cc1ccccc1Nc1nc(N)nc(COC(=O)c2ccc([N+](=O)[O-])o2)n1 | 0.49 | 2.46
63 | Cc1ccc(Cl)cc1N1CCN(CC(=O)NC2CCCc3ccccc32)CC1 (stereo not drawn) | 31.5 | 46.1
64 | CN1CCN(c2cc(-c3ccccc3)nc3cc(-c4ccc(F)cc4)nn23)CC1 | 11.4 | 15.7
65 | O=C1c2ccccc2-c2onc3ccc(Oc4ccccc4)c1c23 | 5.64 | 10.9
66 | O=S(=O)(Nc1ccc2[nH]ncc2c1)c1ccccc1Cl | 11.6 | 19.5
67 | O=C(CCC(=O)NC1CCCCCCC1)Nc1nnc(C(F)(F)F)s1 | 12 | 13.9
68 | COc1ccc(C2c3[nH]c4ccccc4c3CCN2Cc2cccn2-c2ncccn2)cc1C (stereo not drawn) | 25.2 | 28.9
69 | O=C(CCc1c[nH]c2ccccc12)N1CCN(S(=O)(=O)c2ccccc2)CC1 | 94.3 | > 100

Row | Compound | IC50 [µM] | IC90 [µM]
70 | CCOC(=O)C1CCCc2c1[nH]c1c(C(N)=O)cccc21 (stereo not drawn) | 4.13 | 13.2
71 | Cc1nn(-c2nc3ccccc3[nH]2)c(N)c1-c1ccc(Cl)cc1 | 0.21 | 2.6
72 | Cc1csc(NC(=S)Nc2cccc(Cl)c2)n1 | 2.76 | 6.01
73 | CCc1noc(C)c1C(=O)Nc1nc(-c2ccc(F)cc2)c(C)s1 | 8.8 | 36.9
74 | CCOc1ccc(-n2cc(-c3ccccc3)c3c(=O)[nH]cnc32)cc1 | 8.41 | 27.5
75 | Cc1cc(C)c2cc(C(=O)Nc3ccc(C)c(F)c3)[nH]c2c1 | 0.94 | 1.69
76 | CSc1ccccc1C(=O)NC1CCSc2ccccc21 (stereo not drawn) | 9.3 | > 100
77 | CCCOC(=O)CSc1nc(N2CCOCC2)c2c(c1C#N)CC(C)(C)OC2 | 21.8 | 37.4
78 | CCOC(=O)c1nc2sc3c(c2c(=O)[nH]1)CCC(C)C3 (stereo not drawn) | 46.7 | > 100
79 | O=c1[nH]c(=O)n(C2CCCO2)cc1F (stereo not drawn) | 29 | 55.3
80 | NC(=S)NNc1ccc(Cl)c(Cl)c1 | 5.81 | 9.42
81 | CCN1/C(=C/C=C/c2oc3ccc(-c4ccccc4)cc3[n+]2CC)Oc2ccc(-c3ccccc3)cc21 | 3.74 | 4.74
82 | CC(=O)c1cccc(NC(=S)NC2CCCCCCC2)c1 | 23.6 | 26.2
83 | CCCCNC(=S)N/N=C/c1cccc(OCC)c1O | 6.01 | 6.79
84 | O=C(Nc1cccc(Cl)c1)N1CCN(C/C=C/c2ccccc2)CC1 | 37.5 | 52.7
85 | CCOc1cccc(C=Nc2cc(C)cc(C)c2O)c1O | 13.6 | 29.2
86 | NC(=O)c1ccc(N=Cc2ccc([N+](=O)[O-])s2)cc1 | 12.6 | 13.6
87 | O=C1C(c2ccccc2)=[N+]([O-])c2ccccc21 | 95.8 | > 100
88 | Cc1ccc(C(=O)Nc2ccc3c4c(cccc24)CC3)cc1[N+](=O)[O-] | < 0.2 | > 100
89 | CCCCn1cnc2cc(NCc3cccc(OC)c3O)ccc21 | 80.2 | > 100
90 | COCCCn1c(SCc2cccc(OC)c2)nc2cc(OC)c(OC)cc2c1=N | 37 | 49
